Source: the CheMixHub viscosity set
± gives the uncertainty stated by the source.

Experiment: xn = mol fraction of the nth substance listed
Conditions: 101 kPa

CC1CCC(=O)O1 (stereo not given) + O gave a viscosity (298.15 K, x1 = 0.0503) of 1.405 ± 0.011 mPa·s, a viscosity (298.15 K, x1 = 0.0995) of 1.747 ± 0.013 mPa·s and a viscosity (298.15 K, x1 = 0.1997) of 2.113 ± 0.015 mPa·s. It also gave a viscosity (298.15 K, x1 = 0.2994) of 2.204 ± 0.016 mPa·s, a viscosity (298.15 K, x1 = 0.3997) of 2.169 ± 0.016 mPa·s and a viscosity (298.15 K, x1 = 0.499) of 2.055 ± 0.015 mPa·s. For the same molecule, the viscosity (298.15 K, x1 = 0.5994) was 1.998 ± 0.015 mPa·s, the viscosity (298.15 K, x1 = 0.701) was 1.902 ± 0.015 mPa·s and the viscosity (298.15 K, x1 = 0.7995) was 1.856 ± 0.015 mPa·s. It also gave a viscosity (298.15 K, x1 = 0.8996) of 1.823 ± 0.015 mPa·s, a viscosity (303.15 K, x1 = 0.0503) of 1.243 ± 0.01 mPa·s and a viscosity (303.15 K, x1 = 0.0995) of 1.533 ± 0.011 mPa·s. For the same molecule, the viscosity (303.15 K, x1 = 0.1997) was 1.852 ± 0.013 mPa·s, the viscosity (303.15 K, x1 = 0.2994) was 1.939 ± 0.014 mPa·s and the viscosity (303.15 K, x1 = 0.3997) was 1.921 ± 0.014 mPa·s. For the same molecule, the viscosity (303.15 K, x1 = 0.499) was 1.831 ± 0.014 mPa·s, the viscosity (303.15 K, x1 = 0.5994) was 1.786 ± 0.014 mPa·s and the viscosity (303.15 K, x1 = 0.701) was 1.719 ± 0.014 mPa·s. The viscosity (303.15 K, x1 = 0.7995) was 1.689 ± 0.014 mPa·s, the viscosity (303.15 K, x1 = 0.8996) was 1.671 ± 0.014 mPa·s and the viscosity (308.15 K, x1 = 0.0503) was 1.107 ± 0.0092 mPa·s. The viscosity (308.15 K, x1 = 0.0995) was 1.357 ± 0.01 mPa·s, the viscosity (308.15 K, x1 = 0.1997) was 1.638 ± 0.012 mPa·s and the viscosity (308.15 K, x1 = 0.2994) was 1.721 ± 0.013 mPa·s. It also gave a viscosity (308.15 K, x1 = 0.3997) of 1.714 ± 0.013 mPa·s, a viscosity (308.15 K, x1 = 0.499) of 1.65 ± 0.013 mPa·s and a viscosity (308.15 K, x1 = 0.5994) of 1.612 ± 0.013 mPa·s. It also gave a viscosity (308.15 K, x1 = 0.701) of 1.566 ± 0.013 mPa·s, a viscosity (308.15 K, x1 = 0.7995) of 1.545 ± 0.013 mPa·s and a viscosity (308.15 K, x1 = 0.8996) of 1.538 ± 0.013 mPa·s. The viscosity (313.15 K, x1 = 0.0503) was 0.962 ± 0.0083 mPa·s, the viscosity (313.15 K, x1 = 0.0995) was 1.193 ± 0.0094 mPa·s and the viscosity (313.15 K, x1 = 0.1997) was 1.449 ± 0.011 mPa·s. The viscosity (313.15 K, x1 = 0.2994) was 1.529 ± 0.011 mPa·s, the viscosity (313.15 K, x1 = 0.3997) was 1.531 ± 0.012 mPa·s and the viscosity (313.15 K, x1 = 0.499) was 1.487 ± 0.012 mPa·s. The viscosity (313.15 K, x1 = 0.5994) was 1.454 ± 0.012 mPa·s, the viscosity (313.15 K, x1 = 0.701) was 1.426 ± 0.012 mPa·s and the viscosity (313.15 K, x1 = 0.7995) was 1.408 ± 0.012 mPa·s. For the same molecule, the viscosity (313.15 K, x1 = 0.8996) was 1.407 ± 0.012 mPa·s, the viscosity (318.15 K, x1 = 0.0503) was 0.8912 ± 0.0079 mPa·s and the viscosity (318.15 K, x1 = 0.0995) was 1.089 ± 0.0088 mPa·s. For the same molecule, the viscosity (318.15 K, x1 = 0.1997) was 1.31 ± 0.01 mPa·s, the viscosity (318.15 K, x1 = 0.2994) was 1.384 ± 0.011 mPa·s and the viscosity (318.15 K, x1 = 0.3997) was 1.392 ± 0.011 mPa·s. For the same molecule, the viscosity (318.15 K, x1 = 0.499) was 1.36 ± 0.011 mPa·s, the viscosity (318.15 K, x1 = 0.5994) was 1.342 ± 0.011 mPa·s and the viscosity (318.15 K, x1 = 0.701) was 1.32 ± 0.011 mPa·s. For the same molecule, the viscosity (318.15 K, x1 = 0.7995) was 1.311 ± 0.011 mPa·s and the viscosity (318.15 K, x1 = 0.8996) was 1.314 ± 0.011 mPa·s.

For CCCCOCCOCCOCCO + O, the viscosity (293.15 K, x1 = 0.009612) was 1.536 ± 0.016 mPa·s, the viscosity (293.15 K, x1 = 0.02136) was 2.342 ± 0.021 mPa·s and the viscosity (293.15 K, x1 = 0.03602) was 3.496 ± 0.028 mPa·s. It also gave a viscosity (293.15 K, x1 = 0.05509) of 5.103 ± 0.036 mPa·s, a viscosity (293.15 K, x1 = 0.08023) of 7.018 ± 0.045 mPa·s and a viscosity (293.15 K, x1 = 0.1156) of 9.156 ± 0.055 mPa·s. For the same molecule, the viscosity (293.15 K, x1 = 0.1685) was 11.21 ± 0.07 mPa·s, the viscosity (293.15 K, x1 = 0.2571) was 12.63 ± 0.07 mPa·s and the viscosity (293.15 K, x1 = 0.3308) was 12.68 ± 0.07 mPa·s. The viscosity (293.15 K, x1 = 0.4398) was 12.35 ± 0.07 mPa·s, the viscosity (293.15 K, x1 = 0.5322) was 11.78 ± 0.07 mPa·s and the viscosity (293.15 K, x1 = 0.5991) was 11.36 ± 0.07 mPa·s. It also gave a viscosity (293.15 K, x1 = 0.7291) of 10.51 ± 0.06 mPa·s, a viscosity (293.15 K, x1 = 0.8068) of 10.13 ± 0.06 mPa·s and a viscosity (293.15 K, x1 = 0.8905) of 9.778 ± 0.058 mPa·s. The viscosity (303.15 K, x1 = 0.009612) was 1.175 ± 0.012 mPa·s, the viscosity (303.15 K, x1 = 0.02136) was 1.741 ± 0.015 mPa·s and the viscosity (303.15 K, x1 = 0.03602) was 2.526 ± 0.02 mPa·s. It also gave a viscosity (303.15 K, x1 = 0.05509) of 3.614 ± 0.026 mPa·s, a viscosity (303.15 K, x1 = 0.08023) of 4.832 ± 0.032 mPa·s and a viscosity (303.15 K, x1 = 0.1156) of 6.189 ± 0.039 mPa·s. The viscosity (303.15 K, x1 = 0.1685) was 7.424 ± 0.045 mPa·s, the viscosity (303.15 K, x1 = 0.2571) was 8.311 ± 0.05 mPa·s and the viscosity (303.15 K, x1 = 0.3308) was 8.439 ± 0.051 mPa·s. For the same molecule, the viscosity (303.15 K, x1 = 0.4398) was 8.238 ± 0.05 mPa·s, the viscosity (303.15 K, x1 = 0.5322) was 7.929 ± 0.048 mPa·s and the viscosity (303.15 K, x1 = 0.5991) was 7.685 ± 0.047 mPa·s. It also gave a viscosity (303.15 K, x1 = 0.7291) of 7.271 ± 0.044 mPa·s, a viscosity (303.15 K, x1 = 0.8068) of 7.083 ± 0.043 mPa·s and a viscosity (303.15 K, x1 = 0.8905) of 6.856 ± 0.042 mPa·s. It also gave a viscosity (313.15 K, x1 = 0.009612) of 0.9391 ± 0.0093 mPa·s, a viscosity (313.15 K, x1 = 0.02136) of 1.356 ± 0.012 mPa·s and a viscosity (313.15 K, x1 = 0.03602) of 1.935 ± 0.015 mPa·s. For the same molecule, the viscosity (313.15 K, x1 = 0.05509) was 2.685 ± 0.019 mPa·s, the viscosity (313.15 K, x1 = 0.08023) was 3.562 ± 0.024 mPa·s and the viscosity (313.15 K, x1 = 0.1156) was 4.476 ± 0.029 mPa·s. The viscosity (313.15 K, x1 = 0.1685) was 5.289 ± 0.034 mPa·s, the viscosity (313.15 K, x1 = 0.2571) was 5.912 ± 0.037 mPa·s and the viscosity (313.15 K, x1 = 0.3308) was 6.038 ± 0.038 mPa·s. For the same molecule, the viscosity (313.15 K, x1 = 0.4398) was 5.926 ± 0.037 mPa·s, the viscosity (313.15 K, x1 = 0.5322) was 5.747 ± 0.036 mPa·s and the viscosity (313.15 K, x1 = 0.5991) was 5.612 ± 0.035 mPa·s. It also gave a viscosity (313.15 K, x1 = 0.7291) of 5.407 ± 0.034 mPa·s, a viscosity (313.15 K, x1 = 0.8068) of 5.264 ± 0.033 mPa·s and a viscosity (313.15 K, x1 = 0.8905) of 5.143 ± 0.033 mPa·s. For the same molecule, the viscosity (323.15 K, x1 = 0.009612) was 0.7657 ± 0.0075 mPa·s, the viscosity (323.15 K, x1 = 0.02136) was 1.094 ± 0.009 mPa·s and the viscosity (323.15 K, x1 = 0.03602) was 1.519 ± 0.012 mPa·s. The viscosity (323.15 K, x1 = 0.05509) was 2.137 ± 0.015 mPa·s, the viscosity (323.15 K, x1 = 0.08023) was 2.692 ± 0.018 mPa·s and the viscosity (323.15 K, x1 = 0.1156) was 3.293 ± 0.022 mPa·s. It also gave a viscosity (323.15 K, x1 = 0.1685) of 3.913 ± 0.025 mPa·s, a viscosity (323.15 K, x1 = 0.2571) of 4.406 ± 0.028 mPa·s and a viscosity (323.15 K, x1 = 0.3308) of 4.477 ± 0.029 mPa·s. For the same molecule, the viscosity (323.15 K, x1 = 0.4398) was 4.406 ± 0.028 mPa·s, the viscosity (323.15 K, x1 = 0.5322) was 4.329 ± 0.028 mPa·s and the viscosity (323.15 K, x1 = 0.5991) was 4.257 ± 0.027 mPa·s. It also gave a viscosity (323.15 K, x1 = 0.7291) of 4.147 ± 0.027 mPa·s, a viscosity (323.15 K, x1 = 0.8068) of 4.088 ± 0.026 mPa·s and a viscosity (323.15 K, x1 = 0.8905) of 3.936 ± 0.025 mPa·s.
